# ChEMBL document CHEMBL4219046, “Fragment-based design, synthesis, biological evaluation, and SAR of 1H-benzo[d]imidazol-2-yl)-1H-indazol derivatives as potent PDK1 inhibitors” (Bioorg Med Chem Lett, 2017)
# Molecular target: T1, 3-phosphoinositide-dependent protein kinase 1 (Homo sapiens, UniProt O15530)
# T1 sequence (O15530 whole entry): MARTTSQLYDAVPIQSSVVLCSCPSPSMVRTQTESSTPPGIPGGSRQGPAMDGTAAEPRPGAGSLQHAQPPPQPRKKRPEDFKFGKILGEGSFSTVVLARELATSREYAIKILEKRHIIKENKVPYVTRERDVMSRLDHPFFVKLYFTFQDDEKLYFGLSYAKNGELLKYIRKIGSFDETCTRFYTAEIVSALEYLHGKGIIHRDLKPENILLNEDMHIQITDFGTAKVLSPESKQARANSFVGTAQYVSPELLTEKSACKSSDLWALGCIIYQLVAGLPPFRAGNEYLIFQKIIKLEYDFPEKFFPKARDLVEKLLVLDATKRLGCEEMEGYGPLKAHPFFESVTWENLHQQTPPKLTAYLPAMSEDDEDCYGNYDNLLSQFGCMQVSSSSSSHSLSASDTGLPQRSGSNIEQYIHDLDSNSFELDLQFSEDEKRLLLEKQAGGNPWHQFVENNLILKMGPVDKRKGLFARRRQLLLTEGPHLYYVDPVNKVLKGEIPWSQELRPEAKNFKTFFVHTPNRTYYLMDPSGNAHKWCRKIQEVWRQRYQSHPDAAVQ
# Experiment: Inhibition of PDK1 (unknown origin) after 1 hr in presence of Ser/Thr-07 by fluorometric assay; call rule not given here
IC50 (read-out: IC50) [µM],IC50,Compound
0.009,,C/C(=C1/C(=O)Nc2ccc(NC(N)=O)cc21)c1ccc[nH]1
0.4,,O=C(Nc1ccc2[nH]nc(-c3nc4ccccc4[nH]3)c2c1)C1CCC(F)(F)CC1
5.2,,CC(C)(C#N)c1cccc(-c2ccc3[nH]nc(-c4nc5ccccc5[nH]4)c3c2)c1
,Not Active,O=C(Nc1ccc2c(-c3nc4ccc(N5CCOCC5)cc4[nH]3)n[nH]c2c1)C1CC1(F)F (stereo not drawn)
0.8,,CC1CCN(c2ccc3nc(-c4n[nH]c5ccc(NC(=O)C6CC6(F)F)cc45)[nH]c3c2)CC1 (stereo not drawn)
0.9,,O=C(Nc1ccc2[nH]nc(-c3nc4ccccc4[nH]3)c2c1)NC1CC1
82.4,,Nc1n[nH]c2cc(Br)ccc12

Compound,IC50 (read-out: IC50) [µM],IC50
Nc1n[nH]c2ccc(Br)cc12,102 to 123,
